Measurements reported in patent EP1693059A1, “Use of rocaglamide derivatives as NF-AT-specific inhibitors for the treatment of certain inflammatory diseases” (Deutsches Krebsforschungszentrum, priority 2005, dated 2006).

Columns and labels:
NF-kappa B subunit p65 = assay: Immunoblot of nuclear NF-kappa B subunit p65 in activated Jurkat T cells; format: cell-based, human; conditions: PMA/ionomycin 2 h
Protocol: Many inflammatory cytokine genes are transcriptionally activated by the inducible, ubiquitous transcription factors NF-AT, AP-1 and NF-kappa B (Tsai et al., 1996; Sica et al., 1997; Falvo et al., 2000; Macian et aL, 2001; Kaminuma et al., 2002; Li-Weber & Krammer, 2003). Therefore, we first examined the effect of the rocagtamide derivatives on nuclear expression levels of NF-AT, the AP-1 subunit c-Jun, and the NF-kappa B subunit p65 in activated T cells. Nuclear proteins were prepared from Jurkat T cells, stimulated by PMA/iouomycin for 2 h in the presence or absence of different doses of rocaglamides. […] CsA is a well known immunosuppressive reagent that targets NF-AT activity.

NF-kappa B [1] = assay: NF-kappa B consensus luciferase reporter in Jurkat T cells; format: cell-based, human; conditions: for inhibition of NF-kappa B-dependent transcription: doses higher than 150 nM, 480 min
Text: Luciferase reporter construct containing the human IL-2 (-300/+47), the human IL-4 (-269/+11) promoter and the multiple IL-4 NF-AT (P1) luciferase constructs were generated previously (Ehret et al., 2001; Li-Weber et al., 1998). The multiple copies of the AP-1 binding site from SV40 enhancer ([…]), the NF-kappa B consensus sequence ([…]) and the human IL-2 NF-AT (-282/-250) element ([…]) were constructed by ligation of the DNA sequence into the multiple-cloning site of pTATA-Luc vector. The luciferase reporter construct containing the human IFN-γ (-854/+7) promoter was construct by ligation of the IFN-γ promoter sequence generated by PCR into the luciferase reporter vector. All constructs were confirmed by sequencing analysis. The pLuc-Bax promoter reporter plasmid was kindly provided by M. L. Schmitz (Department for Chemistry and Biochemistry, University of Bern, Switzerland).
Jurkat T cells were transfected by eleclroporation as previously described (Li-Weber et al., 1998). After overnight recovering, the cells were divided and treated with different doses of rocaglamides and than further cultured in the absence or presence of PMA (10 ng/ml) and ionomycin (0.5 µM) for 8 h. Luciferase activity was determined in 10 µl of cell extract using the luciferase assay substrate (Promega Corp., Heidelberg, Germany) with a Duolumat LB9507 luminometer (Berthold, Bad Wildbad, Germany).
Characteristically, NF-AT family proteins act synergistically with AP-1 (Fos/Jun) proteins to activate genes containing composite NF-AT and AP-1 binding sites (Macian et al., 2001). Many cytokine genes, including IL-2, IL-4, and IFN-γ contain NF-AT/AP-1 composite sites in their promoter/enhancer region (Rao et al., 1997). To investigate whether inhibition of NF-AT and c-Jun expression by rocaglamides would lead to suppression of their transcriptional activities, we performed transfection studies with luciferase reporter constructs containing multiple copies of the NF-AT-binding elements derived from the IL-4 and IL-2 promoter and the consensus binding sequences for AP-1 and NF-kappa B, respectively. […]

JNK = assay: Immunoblot of phosphorylated JNK in Jurkat T cells; format: cell-based, human; conditions: with PMA/ionomycin
Protocol: T cells were lysed in ice-cold RIPA buffer (50 mM Tris-HCl, pH 8.0, 120 mM NaCI, 1% NP-40, 0.5% Desoxycholate, 1 mM PMSF, 25 mM NaF, 1% SDS, 1 mM DTT, 0.2 mM Na3V04 and 20 µl/ml protease inhibitors) for 30 min. […] Equal amounts of proteins were separated on 10% SDS-PAGE gels, transferred onto Hybond-ECL nitrocellulose membrane (Amersham Biosciences, Little Chalfon, UK). The membrane was blocked with 5% milk powder in PBS/0.1% Tween 20 for 1 h, washed with the same solution and incubated with antibodies at 37°C for 1 h or overnight at 4 °C. The blots were washed with PBS/Tween and developed with HRP-coupled antibodies followed by enhanced Chemiluminescence Reagent Plus (PerkinElmer Life Sciences, Boston, MA). […] For stripping, membranes were incubated for 30 min at 56 °C in a buffer containing 62.5 mM Tris-HCl, pH 6.7, 2% SDS and 100 mM β-mercaptoethanol.
To investigate the molecular mechanisms of rocaglamides-mediated suppression of NF-AT activity, we examined the effect of rocaglamides on activities of MAP kinases.

NF-kappa B [2] = conditions: Baumann et al., 2002; cited from earlier work

Compound: COc1ccc([C@@]23Oc4cc(OC)cc(OC)c4[C@]2(O)[C@H](O)[C@H](C(=O)N(C)C)[C@H]3c2ccccc2)cc1 [Roc-1]
- nuclear levels of p65 (NF-kappa B subunit p65): slightly elevated
- NF-kappa B activity (NF-kappa B [1]; concentrations up to 100 nM): subtle increase
- expression of phosphor-JNK (p-JNK) (JNK): stronger inducers of p-JNK than Roc-2
- NF-kappa B activity induced by TNF-α or PMA (NF-kappa B [2]): inhibit NF-kappa B activity

Compound: COc1ccc([C@@]23Oc4cc(OC)cc(OC)c4[C@]2(O)[C@H](OC(C)=O)[C@H](C(=O)N(C)C)[C@H]3c2ccccc2)cc1 [Roc-2]
- inhibition of NF-kappa B-dependent transcription (NF-kappa B [1]): about 20%
- expression of phosphor-JNK (p-JNK) (JNK): Roc-1 and 3 are stronger inducers of p-JNK than Roc-2

Compound: COC(=O)[C@H]1[C@@H](OC=O)[C@@]2(O)c3c(OC)cc(OC)cc3O[C@@]2(c2ccc3c(c2)OCO3)[C@@H]1c1ccccc1 [Roc-3]
- inhibition of NF-kappa B-dependent transcription (NF-kappa B [1]): about 20%
- expression of phosphor-JNK (p-JNK) (JNK): stronger inducers of p-JNK than Roc-2
